pIC50: −log10 of the molar value. Where a name gives a salt, the structure may show the parent alone.

The pIC50 is the IC50 on a negative log10 scale, so that one unit is a factor of ten.

Test [1] deals with T1, human recombinant serotonin 5-HT2A receptor (Homo sapiens, UniProt P28223).
T1 construct: purchased PerkinElmer Life and Analytical Sciences, USA; host or cells: CHO-K1
Briefly: Binding affinity for serotonin 5-HT2A receptor ([3H]Ketanserin). The note with it: CHO-K1 expressed receptor, 1 nM [3H]Ketanserin. On the procedure:
Receptor binding affinities of the compounds for serotonin receptors were measured by the method described in the literature [Park W K et al., Pharmacol Biochem Behav. 2005, 82(2), 361-372].
For serotonin 5-HT2A binding, an aliquot of human recombinant serotonin 5-HT2A receptor (PerkinElmer Life and Analytical Sciences, USA) expressed in CHO-K1 cells (5 ug/well) and 1 nM [^3H]Ketanserin (PerkinElmer) were used in the presence of mianserin (20 uM) as nonspecific. The reaction mixture was incubated for 60 min at 27 using 50 mM Tris-HCl (pH 7.4) buffer containing 4 mM CaCl2 and 0.1% ascorbic acid, and harvested through filtermate A glass fiber filter (Wallac, Finland) presoaked in 0.5% polyethyleneimine (PEI) by microbeta filtermate-96 harvester (PerkinElmer) to terminate the reaction, and then washed with ice cold 50 mM Tris-HCl buffer solution (pH 7.4). The filter was then covered with MeltiLex, sealed in a sample bag, dried in an oven. The radioactivity retained in the filter was finally counted using MicroBeta Plus (Wallac).
(§1) The binding affinity (IC50) of a compound for the receptor was calculated by computerized nonlinear regression analysis (GraphPad Prism Program, San Diego, USA) using 7-8 varied concentrations of the compound run in duplicate tubes.

Test [2] addresses T2, human recombinant 5-HT2C receptor (Homo sapiens, UniProt P28335).
T2 construct: purchased PerkinElmer
T2 sequence (P28335 33-458): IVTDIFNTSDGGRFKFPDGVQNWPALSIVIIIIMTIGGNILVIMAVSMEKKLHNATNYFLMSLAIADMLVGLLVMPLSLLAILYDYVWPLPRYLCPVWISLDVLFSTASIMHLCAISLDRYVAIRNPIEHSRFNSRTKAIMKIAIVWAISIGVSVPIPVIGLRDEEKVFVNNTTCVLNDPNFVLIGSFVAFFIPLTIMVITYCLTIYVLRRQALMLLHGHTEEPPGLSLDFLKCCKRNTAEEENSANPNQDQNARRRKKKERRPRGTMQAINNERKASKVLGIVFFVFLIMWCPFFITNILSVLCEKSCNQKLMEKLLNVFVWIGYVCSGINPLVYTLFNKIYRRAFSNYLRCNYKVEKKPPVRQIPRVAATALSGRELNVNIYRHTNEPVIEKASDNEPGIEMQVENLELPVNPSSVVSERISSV
The test can be described thus: Binding affinity for serotonin 5-HT2C receptor ([3H]Mesulergine). Particulars: CHO-K1 membranes, 1.3 nM [3H]Mesulergine. As to the method: Receptor binding affinities of the compounds for serotonin receptors were measured by the method described in the literature [Park W K et al., Pharmacol Biochem Behav.
as §1
Nonspecific binding was determined using 100 uM mianserin. The incubations were performed for 60 min at 27, and these were terminated by rapid filtration through filtermate. A glass fiber filter presoaked in 0.5% PEI.

The target of test [3] is T3, human serotonin transporter (Homo sapiens, UniProt P31645).
T3 construct: purchased PerkinElmer; host or cells: HEK-293
Briefly: Binding affinity for serotonin transporter ([3H]Imipramine). Particulars: HEK-293 membranes, 2 nM [3H]Imipramine. On the procedure:
For serotonin transporter binding assays, a reaction mixture with a final volume of 0.25 ml was prepared by mixing a test compound, human serotonin transporter membrane expressed in HEK-293 cells (PerkinElmer, 5 ug/well), [^3H]Imipramine (PerkinElmer, 2 nM) and 50 mM Tris-HCl (pH 7.4) buffer containing 120 mM NaCl and 5 mM KCl. The reaction mixture was incubated for 30 min at 27, and harvested through filtermate. A glass fiber filter presoaked in 0.5% PEI with ice cold 50 mM Tris-HCl buffer (pH 7.4) containing 0.9% NaCl.

T1 sequence (P28223 whole entry): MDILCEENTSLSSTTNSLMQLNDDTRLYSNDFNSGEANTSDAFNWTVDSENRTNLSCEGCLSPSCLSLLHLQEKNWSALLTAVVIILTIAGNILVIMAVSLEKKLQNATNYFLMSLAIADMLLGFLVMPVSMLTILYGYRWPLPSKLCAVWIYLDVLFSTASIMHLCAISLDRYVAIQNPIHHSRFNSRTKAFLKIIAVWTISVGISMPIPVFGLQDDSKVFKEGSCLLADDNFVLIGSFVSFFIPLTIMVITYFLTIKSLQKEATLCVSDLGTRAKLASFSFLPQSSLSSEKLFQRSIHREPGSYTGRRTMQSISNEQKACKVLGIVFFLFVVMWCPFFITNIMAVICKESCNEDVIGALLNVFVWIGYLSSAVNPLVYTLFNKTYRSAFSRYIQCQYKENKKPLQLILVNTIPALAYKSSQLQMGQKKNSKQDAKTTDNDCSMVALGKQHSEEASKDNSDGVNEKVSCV
T3 sequence (P31645 whole entry): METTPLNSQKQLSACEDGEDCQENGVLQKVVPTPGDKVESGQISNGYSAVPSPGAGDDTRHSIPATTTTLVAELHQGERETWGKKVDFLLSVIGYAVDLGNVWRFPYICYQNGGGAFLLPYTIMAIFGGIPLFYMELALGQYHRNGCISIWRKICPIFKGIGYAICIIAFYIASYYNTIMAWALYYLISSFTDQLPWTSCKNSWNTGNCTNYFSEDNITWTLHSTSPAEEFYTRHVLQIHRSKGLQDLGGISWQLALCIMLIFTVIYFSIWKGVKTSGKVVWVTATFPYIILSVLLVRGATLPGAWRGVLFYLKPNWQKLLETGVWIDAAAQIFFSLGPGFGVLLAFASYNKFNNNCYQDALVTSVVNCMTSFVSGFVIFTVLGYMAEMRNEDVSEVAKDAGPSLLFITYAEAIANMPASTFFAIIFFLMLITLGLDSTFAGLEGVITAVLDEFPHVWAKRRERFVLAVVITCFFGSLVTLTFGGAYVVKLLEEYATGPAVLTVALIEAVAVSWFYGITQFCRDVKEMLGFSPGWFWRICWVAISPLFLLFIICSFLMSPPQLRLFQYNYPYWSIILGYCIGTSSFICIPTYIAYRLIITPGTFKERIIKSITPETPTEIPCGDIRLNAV

As to `Cc1[nH]c(-c2ccccc2)c(C)c1C(=O)NCCCN1CCN(c2cccc(Cl)c2Cl)CC1` [Example 77, N-(3-(4-(2,3-dichlorophenyl)piperazin-1-yl)propyl)-2,4-dimethyl-5-phenyl-1H-pyrrole-3-carboxamide hydrochloride], the pIC50 is 7.41 in test [1], 7.80 in test [2] and 7.44 in test [3].
In the same order, the values of `Cc1[nH]c(-c2ccc(Cl)cc2)cc1C(=O)NCCCN1CCN(c2cccc(Cl)c2Cl)CC1` [Example 45, 5-(4-chlorophenyl)-N-(3-(4-(2,3-dichlorophenyl)piperazin-1-yl)propyl)-2-methyl-1H-pyrrole-3-carboxamide hydrochloride] are 6.98, 6.97 and 7.25.
In the same order, the values of `CCn1c(-c2ccc(Cl)cc2)cc(C(=O)NCCN2CCN(c3cccc(Cl)c3Cl)CC2)c1C` [Example 69, 5-(4-chlorophenyl)-N-(2-(4-(2,3-dichlorophenyl)piperazin-1-ypethyl)-1-ethyl-2-methyl-1H-pyrrole-3-carboxamide hydrochloride] are 6.39, 7.54 and 6.66.
For `Cc1c(C(=O)N(C)CCCN2CCN(c3cccc(Cl)c3Cl)CC2)cc(-c2ccccc2)n1C` [Example 37, N-(3-(4-(2,3-dichlorophenyl)piperazin-1-yl)propyl)-N,1,2-trimethyl-5-phenyl-1H-pyrrole-3-carboxamide hydrochloride] the same measures were 7.41, 7.46 and 7.01.
With `Cc1c(C(=O)NCCN2CCN(c3cccc(Cl)c3Cl)CC2)cc(-c2ccc(Cl)cc2)n1C` [Example 68, 5-(4-chlorophenyl)-N-(2-(4-(2,3-dichlorophenyl)piperazin-1-yl)ethyl)-1,2-dimethyl-1H-pyrrole-3-carboxamide hydrochloride], the pIC50 in test [1] is 6.53; in test [2] it was 7.62; in test [3] it was 6.75.
Turning to `Cc1c(C(=O)NCCCN2CCN(c3cccc(Cl)c3Cl)CC2)cc(-c2ccncc2)n1C` [Example 106, N-(3-(4-(2,3-dichlorophenyl)piperazin-1-yl)propyl)-1,2-dimethyl-5-(pyridin-4-yl)-1H-pyrrole-3-carboxamide], the values for the pIC50 in test [1], in test [2] and in test [3] were 7.41, 6.76 and 7.07, respectively.
For `COc1cccc(-c2cc(C(=O)NCCCN3CCN(c4cccc(Cl)c4Cl)CC3)c(C)[nH]2)c1` [Example 83, N-(3-(4-(2,3-dichlorophenyl)piperazin-1-yl)propyl)-5-(3-methoxyphenyl)-2-methyl-1H-pyrrole-3-carboxamide hydrochloride] the same measures were 7.70, 7.70 and 7.23.
In the same order, the values of `CCCn1c(-c2ccccc2)cc(C(=O)NCCCN2CCN(c3ccccc3OC)CC2)c1C` [Example 84, N-(3-(4-(2-Methoxyphenyl)piperazin-1-yl)propyl)-2-methyl-5-phenyl-1-propyl-1H-pyrrole-3-carboxamide] are 6.02, 5.85 and 5.96.
For `Cc1cccc(N2CCN(CCCNC(=O)c3cc(-c4ccccc4)[nH]c3C)CC2)c1C` [Example 24, N-(3-(4-(2,3-dimethylphenyl)piperazin-1-yl)propyl)-2-methyl-5-phenyl-1H-pyrrole-3-carboxamide], the results for the pIC50 in test [1], in test [2] and in test [3] were 6.52, 6.21 and 7.11, respectively.
Consider `CCn1c(-c2ccc(OC)cc2)cc(C(=O)NCCCN2CCN(c3cccc(Cl)c3Cl)CC2)c1C` [Example 75, N-(3-(4-(2,3-dichlorophenyl)piperazin-1-yl)propyl)-1-ethyl-5-(4-methoxyphenyl)-2-methyl-1H-pyrrole-3-carboxamide hydrochloride], for which the pIC50 in test [1] was 6.85; in test [2], 7.46; in test [3], 7.00.
In the same order, the values of `CCCCc1cc(C(=O)NCCCN2CCN(c3cccc(Cl)c3Cl)CC2)c(C)n1C` [Example 138, 5-butyl-N-(3-(4-(2,3-dichlorophenyl)piperazin-1-yl)propyl)-1,2-dimethyl-1H-pyrrole-3-carboxamide] are 6.87, 6.57 and 6.48.
Take `Cc1cccc(N2CCN(CCCNC(=O)c3cc(-c4ccccc4)n(Cc4ccccc4)c3C)CC2)c1C` [Example 18, 1-Benzyl-N-(3-(4-(2,3-dimethylphenyl)piperazin-1-yl)propyl)-2-methyl-5-phenyl-1H-pyrrole-3-carboxamide]: the figures for the pIC50 in test [1], in test [2] and in test [3] were 6.65, 6.53 and 7.84, respectively.
In the same order, the values of `Cc1c(C(=O)NCCCN2CCN(c3cccc(Cl)c3Cl)CC2)cc(-c2ccccc2)n1CC(C)C` [Example 28, N-(3-(4-(2,3-dichlorophenyl)piperazin-1-yl)propyl)-1-isobutyl-2-methyl-5-phenyl-1H-pyrrole-3-carboxamide] are 6.39, 6.47 and 6.42.
`Cc1cccc(N2CCN(CCCNC(=O)c3cc(-c4ccccc4)n(CC(C)C)c3C)CC2)c1C` [Example 27, N-(3-(4-(2,3-dimethylphenyl)piperazin-1-yl)propyl)-1-isobutyl-2-methyl-5-phenyl-1H-pyrrole-3-carboxamide]: the values for the pIC50 in test [1], in test [2] and in test [3] were 6.05, 5.89 and 6.46, respectively.
In the same order, the values of `CCCn1c(-c2ccccc2)cc(C(=O)NCCCN2CCN(c3ccccc3Br)CC2)c1C` [Example 88, N-(3-(4-(2-bromophenyl)piperazin-1-yl)propyl)-2-methyl-5-phenyl-1-propyl-1H-pyrrole-3-carboxamide] are 6.66, 6.20 and 6.65.
For the molecule `Cc1[nH]c(-c2ccccc2)cc1C(=O)NCCCN1CCN(c2cccc(Cl)c2)CC1` [Example 23, N-(3-(4-(3-chlorophenyl)piperazin-1-yl)propyl)-2-methyl-5-phenyl-1H-pyrrole-3-carboxamide], the pIC50 in test [1] is 6.61; in test [2] it was 6.55; in test [3], 7.04.
In the same order, the values of `Cc1cccc(N2CCN(CCCNC(=O)c3cc(-c4ccc(Cl)cc4)[nH]c3C)CC2)c1C` [Example 44, 5-(4-chlorophenyl)-N-(3-(4-(2,3-dimethylphenyl)piperazin-1-yl)propyl)-2-methyl-1H-pyrrole-3-carboxamide hydrochloride] are 7.04, 6.72 and 7.72.
For `Cc1c(C(=O)NCCCN2CCN(c3cccc(Cl)c3Cl)CC2)cc(-c2ccccn2)n1C` [Example 92, N-(3-(4-(2,3-dichlorophenyl)piperazin-1-yl)propyl)-1,2-dimethyl-5-(pyridin-2-yl)-1H-pyrrole-3-carboxamide dihydrochloride] the same measures were 7.37, 6.57 and 6.96.
Turning to `Cc1c(C(=O)NCCCN2CCN(c3cccc(Cl)c3)CC2)cc(-c2ccccc2)n1C` [Example 1, N-(3-(4-(3-chlorophenyl)piperazin-1-yl)propyl)-1,2-dimethyl-5-phenyl-1H-pyrrole-3-carboxamide], the pIC50 in test [1] is 7.04; in test [2], 6.80; in test [3] it was 7.95.
For `CCCCc1cc(C(=O)NCCCN2CCN(c3cccc(Cl)c3Cl)CC2)c(C)[nH]1` [Example 137, 5-butyl-N-(3-(4-(2,3-dichlorophenyl)piperazin-1-yl)propyl)-2-methyl-1H-pyrrole-3-carboxamide] the same measures were 7.17, 6.88 and 7.21.

Source of the values: patent US8895558B2, “Arylpiperazine-containing pyrrole 3-carboxamide derivatives for treating depressive disorders” (Green Cross Corporation, priority 2008, dated 2014).
